Experimental data from patent publication US9328122B2, “7-substituted Hanfangichin B derivative, and preparation method and use thereof” (HANGZHOU BENSHENG PHARMACEUTICAL CO., LTD., priority 2012, dated 2016).
Values after ≈ are worked out from the molar mass of the structure shown.

Experiments:
[1] = tested on: Kasumi-1 (acute myeloid leukemia M2 type) cells; assay: MTT cell growth inhibition, leukemia cells; type: cell-based, human; settings: Homo sapiens, Kasumi-1, 72 h, MTT; for IC50: read-out: IC50; for IC90: read-out: IC90
Excerpt: (§1) Leukemia cell lines: leukemia cell lines: K562adr (drug-resistant, chronic myeloid leukemia, CML), NB4 (acute promyelocytic leukemia, AML), Kasumi-1 (acute myeloid leukemia M2 type, AML-M2), Jurkat (acute lymphoblastic leukemia, ALL), all of which were donated by Cancer Research Institute of Zhejiang University, China; and H9 (acute lymphoblastic leukemia, ALL), which was purchased from China Center for Type Culture Collection.
(§2) Reagents: The standard sample of fangchinoline (FAN) was purchased from Ci Yuan Biotechnology Co., Ltd., Shaanxi, China; and the 7-substituted fangchinoline derivatives according to the present invention.
(§3) 6000 well-growing leukemia cells were obtained and inoculated into wells of a 96-well cell culture plate. The culture medium was a RPMI-1640 cell culture medium containing 10% fetal bovine serum. After adding the 7-substituted fangchinoline derivatives of different concentrations the next day and mixing uniformly, the plate was placed in a carbon dioxide cell incubator (5% CO2) at 37° C. and incubating for 72 hours. Then the viable cell concentration was determined by the MTT method.

[2] = tested on: H9 (acute lymphoblastic leukemia) cells; assay: MTT cell growth inhibition, leukemia cells; type: cell-based, human; settings: Homo sapiens, H9, 72 h, MTT; for IC50: read-out: IC50; for IC90: read-out: IC90
Excerpt: as §1, §2, §3

[3] = tested on: Jurkat (acute lymphoblastic leukemia) cells; assay: MTT cell growth inhibition, leukemia cells; type: cell-based, human; settings: Homo sapiens, Jurkat, 72 h, MTT; for IC50: read-out: IC50; for IC90: read-out: IC90
Excerpt: as §1, §2, §3

[4] = tested on: PC-3 (prostate cancer) cells; assay: MTT cell growth inhibition, solid tumor cells; type: cell-based, human; settings: Homo sapiens, PC-3, 72 h, MTT; for IC50: read-out: IC50; for IC90: read-out: IC90
Excerpt: (§4) Hep-2 (laryngeal carcinoma), A549 (human lung cancer), CaES-17 (esophageal cancer cell), PC-3 (prostate cancer), CNE (nasopharyngeal carcinoma cell) and SK-OV-3 (ovarian cancer cell), all of which were purchased from China Center For Type Culture Collection; RKO (human colon adenocarcinoma cell), MGC-803 (human gastric cancer cell), MG-63 (osteosarcoma), and U87-MG (malignant glioma cell), all of which were purchased from Fuxiang Bio-tech Co. Ltd., Shanghai, China; PANC-1 (pancreatic cancer), Becap37 (human breast cancer cell), Hela (human cervical cancer cell) and Hep G2 (human liver cancer cell), all of which were donated by Cancer Research Institute of Zhejiang University, China.
as §3, with “human solid tumor” for “leukemia”, “DMEM High Glucose” for “a RPMI-1640”, “serum. The plate was placed in a carbon dioxide cell incubator (5% CO2) at 37° C. and incubated for 24 hours.” for “serum.”, “added with” for “adding the”, “concentration” for “concentrations the next day”, “incubated” for “incubating”

[5] = tested on: PANC-1 (pancreatic cancer) cells; assay: MTT cell growth inhibition, solid tumor cells; type: cell-based, human; settings: Homo sapiens, PANC-1, 72 h, MTT; for IC50: read-out: IC50; for IC90: read-out: IC90
Excerpt: as §4
as §3, with “human solid tumor” for “leukemia”, “DMEM High Glucose” for “a RPMI-1640”, “serum. The plate was placed in a carbon dioxide cell incubator (5% CO2) at 37° C. and incubated for 24 hours.” for “serum.”, “added with” for “adding the”, “concentration” for “concentrations the next day”, “incubated” for “incubating”

[6] = tested on: CNE (nasopharyngeal carcinoma) cells; assay: MTT cell growth inhibition, solid tumor cells; type: cell-based, human; settings: Homo sapiens, CNE, 72 h, MTT; for IC50: read-out: IC50; for IC90: read-out: IC90
Excerpt: as §4
as §3, with “human solid tumor” for “leukemia”, “DMEM High Glucose” for “a RPMI-1640”, “serum. The plate was placed in a carbon dioxide cell incubator (5% CO2) at 37° C. and incubated for 24 hours.” for “serum.”, “added with” for “adding the”, “concentration” for “concentrations the next day”, “incubated” for “incubating”

[7] = tested on: CaEs-17 (esophageal cancer) cells; assay: MTT cell growth inhibition, solid tumor cells; type: cell-based, human; settings: Homo sapiens, CaEs17, CaEs-17, 72 h, MTT; for IC50: read-out: IC50; for IC90: read-out: IC90
Excerpt: as §4
as §3, with “human solid tumor” for “leukemia”, “DMEM High Glucose” for “a RPMI-1640”, “serum. The plate was placed in a carbon dioxide cell incubator (5% CO2) at 37° C. and incubated for 24 hours.” for “serum.”, “added with” for “adding the”, “concentration” for “concentrations the next day”, “incubated” for “incubating”

[8] = tested on: SK-OV-3 (ovarian cancer) cells; assay: MTT cell growth inhibition, solid tumor cells; type: cell-based, human; settings: Homo sapiens, SK-OV-3, 72 h, MTT; for IC50: read-out: IC50; for IC90: read-out: IC90
Excerpt: as §4
as §3, with “human solid tumor” for “leukemia”, “DMEM High Glucose” for “a RPMI-1640”, “serum. The plate was placed in a carbon dioxide cell incubator (5% CO2) at 37° C. and incubated for 24 hours.” for “serum.”, “added with” for “adding the”, “concentration” for “concentrations the next day”, “incubated” for “incubating”

tumor = assay: Antitumor activity compared with fangchinoline, overall statement; type: cell-based; settings: tumor type not specified
[9] = tested on: RPMI 8226 (multiple myeloma) cells; assay: MTT cell growth inhibition, multiple myeloma cells; type: cell-based, human; settings: Homo sapiens, RPMI 8226, 72 h, MTT; for IC50: read-out: IC50; for IC90: read-out: IC90
Procedure: Myeloma cell lines: RPMI8226 (multiple myeloma), purchased from Fuxiang Bio-tech Co. Ltd., Shanghai, China.
as §3, with “well-growing” for “well-growing leukemia”, “incubated” for “incubating”

[10] = tested on: Becap-37 (human breast cancer) cells; assay: MTT cell growth inhibition, solid tumor cells; type: cell-based; settings: Homo sapiens, Becap-37, 72 h, MTT; for IC50: read-out: IC50; for IC90: read-out: IC90
Excerpt: as §4
as §3, with “human solid tumor” for “leukemia”, “DMEM High Glucose” for “a RPMI-1640”, “serum. The plate was placed in a carbon dioxide cell incubator (5% CO2) at 37° C. and incubated for 24 hours.” for “serum.”, “added with” for “adding the”, “concentration” for “concentrations the next day”, “incubated” for “incubating”

[11] = tested on: MG-63 (osteosarcoma) cells; assay: MTT cell growth inhibition, solid tumor cells; type: cell-based; settings: Homo sapiens, MG-63, 72 h, MTT; for IC50: read-out: IC50; for IC90: read-out: IC90
Excerpt: as §4
as §3, with “human solid tumor” for “leukemia”, “DMEM High Glucose” for “a RPMI-1640”, “serum. The plate was placed in a carbon dioxide cell incubator (5% CO2) at 37° C. and incubated for 24 hours.” for “serum.”, “added with” for “adding the”, “concentration” for “concentrations the next day”, “incubated” for “incubating”

[12] = tested on: MGC-803 (human gastric cancer) cells; assay: MTT cell growth inhibition, solid tumor cells; type: cell-based; settings: MGC-803, 72 h, MTT; for IC50: read-out: IC50; for IC90: read-out: IC90
Excerpt: as §4
as §3, with “human solid tumor” for “leukemia”, “DMEM High Glucose” for “a RPMI-1640”, “serum. The plate was placed in a carbon dioxide cell incubator (5% CO2) at 37° C. and incubated for 24 hours.” for “serum.”, “added with” for “adding the”, “concentration” for “concentrations the next day”, “incubated” for “incubating”

[13] = tested on: Hep G2 (human liver cancer) cells; assay: MTT cell growth inhibition, solid tumor cells; type: cell-based; settings: Homo sapiens, HepG2, Hep G2, 72 h, MTT; for IC50: read-out: IC50; for IC90: read-out: IC90
Excerpt: as §4
as §3, with “human solid tumor” for “leukemia”, “DMEM High Glucose” for “a RPMI-1640”, “serum. The plate was placed in a carbon dioxide cell incubator (5% CO2) at 37° C. and incubated for 24 hours.” for “serum.”, “added with” for “adding the”, “concentration” for “concentrations the next day”, “incubated” for “incubating”

[14] = tested on: RKO (human colon adenocarcinoma) cells; assay: MTT cell growth inhibition, solid tumor cells; type: cell-based; settings: Homo sapiens, RKO, 72 h, MTT; for IC50: read-out: IC50; for IC90: read-out: IC90
Excerpt: as §4
as §3, with “human solid tumor” for “leukemia”, “DMEM High Glucose” for “a RPMI-1640”, “serum. The plate was placed in a carbon dioxide cell incubator (5% CO2) at 37° C. and incubated for 24 hours.” for “serum.”, “added with” for “adding the”, “concentration” for “concentrations the next day”, “incubated” for “incubating”

[15] = tested on: Hela (human cervical cancer) cells; assay: MTT cell growth inhibition, solid tumor cells; type: cell-based; settings: Homo sapiens, Hela, 72 h, MTT; for IC50: read-out: IC50; for IC90: read-out: IC90
Excerpt: as §4
as §3, with “human solid tumor” for “leukemia”, “DMEM High Glucose” for “a RPMI-1640”, “serum. The plate was placed in a carbon dioxide cell incubator (5% CO2) at 37° C. and incubated for 24 hours.” for “serum.”, “added with” for “adding the”, “concentration” for “concentrations the next day”, “incubated” for “incubating”

[16] = tested on: NB4 (acute promyelocytic leukemia) cells; assay: MTT cell growth inhibition, leukemia cells; type: cell-based; settings: Homo sapiens, NB4, 72 h, MTT; for IC50: read-out: IC50; for IC90: read-out: IC90
Excerpt: as §1, §2, §3

[17] = tested on: K562/ADR (K562adr, drug-resistant chronic myeloid leukemia) cells; assay: MTT cell growth inhibition, leukemia cells; type: cell-based; settings: Homo sapiens, K562/ADR, 72 h, MTT; for IC50: read-out: IC50; for IC90: read-out: IC90
Excerpt: as §1, §2, §3

IC50 [1] [µg/mL] | IC90 [1] [µg/mL] | IC50 [2] [µg/mL] | IC90 [2] [µg/mL] | IC50 [3] [µg/mL] | IC90 [3] [µg/mL] | IC50 [4] [µg/mL] | IC90 [4] [µg/mL] | IC50 [5] [µg/mL] | IC90 [5] [µg/mL] | IC50 [6] [µg/mL] | IC90 [6] [µg/mL] | IC50 [7] [µg/mL] | IC90 [7] [µg/mL] | IC50 [8] [µg/mL] | IC90 [8] [µg/mL] | IC50 [9] [µg/mL] | IC90 [9] [µg/mL] | IC50 [10] [µg/mL] | Compound | antitumor activity compared with that of fangchinoline (tumor) | other results
3.22 (≈ 4.2 µM) | 7.22 (≈ 9.42 µM) | 1.8 (≈ 2.35 µM) | 3.3 (≈ 4.3 µM) | 1.42 (≈ 1.85 µM) | 2.91 (≈ 3.79 µM) | 3.95 (≈ 5.15 µM) | 7.45 (≈ 9.71 µM) | 3.62 (≈ 4.72 µM) | 7.25 (≈ 9.45 µM) | 3.38 (≈ 4.41 µM) | 7.34 (≈ 9.57 µM) | 3.1 (≈ 4.04 µM) | 7.59 (≈ 9.9 µM) | 6.19 (≈ 8.07 µM) | 11.2 (≈ 14.6 µM) | 0.13 (≈ 0.17 µM) | 0.77 (≈ 1 µM) | 3.36 (≈ 4.38 µM) | COc1ccc2cc1Oc1ccc(cc1)C[C@H]1c3cc(c(OC)cc3CCN1C)Oc1c(OCc3ccc(C(F)(F)F)cc3)c(OC)cc3c1[C@H](C2)N(C)CC3 [BS-FC-216] | significantly superior | IC90 [10]: 5.3 µg/mL (≈ 6.91 µM); IC50 [11]: 3.4 µg/mL (≈ 4.43 µM); IC90 [11]: 5.5 µg/mL (≈ 7.17 µM); IC50 [12]: 2.72 µg/mL (≈ 3.55 µM); IC90 [12]: 3.98 µg/mL (≈ 5.19 µM); IC50 [13]: 2.54 µg/mL (≈ 3.31 µM); IC90 [13]: 5.91 µg/mL (≈ 7.71 µM); IC50 [14]: 1.69 µg/mL (≈ 2.2 µM); IC90 [14]: 5.79 µg/mL (≈ 7.55 µM); IC50 [15]: 1.58 µg/mL (≈ 2.06 µM); IC90 [15]: 3.84 µg/mL (≈ 5.01 µM); IC50 [16]: 0.99 µg/mL (≈ 1.29 µM); IC90 [16]: 2.93 µg/mL (≈ 3.82 µM); IC50 [17]: 0.6 µg/mL (≈ 0.782 µM); IC90 [17]: 2.15 µg/mL (≈ 2.8 µM)
1.15 (≈ 1.7 µM) | 3.72 (≈ 5.5 µM) | 3.23 (≈ 4.77 µM) | 6.64 (≈ 9.81 µM) | 0.93 (≈ 1.37 µM) | 3.09 (≈ 4.57 µM) | 4.55 (≈ 6.72 µM) | 7.61 (≈ 11.2 µM) | 2.79 (≈ 4.12 µM) | 7.68 (≈ 11.3 µM) | 3.2 (≈ 4.73 µM) | 7.6 (≈ 11.2 µM) | 2.6 (≈ 3.84 µM) | 9.32 (≈ 13.8 µM) | 5.41 (≈ 7.99 µM) | 14.2 (≈ 21.1 µM) | 0.12 (≈ 0.177 µM) | 0.5 (≈ 0.739 µM) | 3.19 (≈ 4.71 µM) | COc1ccc2cc1Oc1ccc(cc1)C[C@H]1c3cc(c(OC)cc3CCN1C)Oc1c(OC3CCCC3)c(OC)cc3c1[C@H](C2)N(C)CC3 [BS-FC-220] | significantly superior | IC90 [10]: 6.1 µg/mL (≈ 9.01 µM); IC50 [11]: 2.8 µg/mL (≈ 4.14 µM); IC90 [11]: 3.6 µg/mL (≈ 5.32 µM); IC50 [12]: 1.4 µg/mL (≈ 2.07 µM); IC90 [12]: 3.96 µg/mL (≈ 5.85 µM); IC50 [13]: 2.37 µg/mL (≈ 3.5 µM); IC90 [13]: 7.01 µg/mL (≈ 10.4 µM); IC50 [14]: 1.25 µg/mL (≈ 1.85 µM); IC90 [14]: 3.73 µg/mL (≈ 5.51 µM); IC50 [15]: 1.43 µg/mL (≈ 2.11 µM); IC90 [15]: 3.71 µg/mL (≈ 5.48 µM); IC50 [16]: 0.66 µg/mL (≈ 0.975 µM); IC90 [16]: 3.16 µg/mL (≈ 4.67 µM); IC50 [17]: 0.43 µg/mL (≈ 0.635 µM); IC90 [17]: 4 µg/mL (≈ 5.91 µM)
